# US20140142094A1, “KINASE INHIBITORS” (ICAHN SCHOOL OF MEDICINE AT MOUNT SINAI, priority 2011, published 2014)
# pIC50: −log10 of the molar value.
# Tests used:
# [1] = tested on: DU145 (prostate cancer); assay: Cytotoxicity on DU145 cancer cell line; format: cell-based; settings: Homo sapiens, DU-145; DU145 cells, 96 h treatment
# Protocol: (§1) The effect of the compounds described herein on tumor cells was determined by the assay described by Latham et al., Oncogene 12:827-837 (1996). Tumor cells K562 (chronic myelogenous leukemia; leukemia cell line +ve for Bcr-Abl) or DU145 (prostate cancer) were plated in 12-well dishes at a cell density of 2.5×10^4 cells per well. The plated cells were treated 24h. later with a DMSO solution of a compound as described herein at multiple concentrations ranging from 0.01 μM to 100 μM. The plates were examined 96 h. later under an inverted microscope, Olympus CK-2 using a 10× objective, and compound activity was noted by physical observation. When necessary, the total number of viable cells was determined by trypsinizing the wells and counting the number of viable cells, as determined by trypan blue exclusion, using a hemacytometer.
# [2] = tested on: K562 (chronic myelogenous leukemia; leukemia cell line +ve for Bcr-Abl); assay: Cytotoxicity on K562 cancer cell line; format: cell-based; settings: Homo sapiens; K562 cells, 96 h treatment
# Protocol: as §1
SMILES,pIC50 [1],pIC50 [2]
"CN1CCN(c2ccc(Nc3ncc4c(n3)S/C(=C/c3ccc(F)cc3)C(=O)N4)cc2)CC1 [Compound 1a, (E)-7-(4-Fluorobenzylidene)-2-(4-(4-methylpiperazin-1-yl)phenylamino)-5H-pyrimido[4,5-b][1,4]thiazin-6(7H)-one]",5.00 to 6.00,5.00 to 6.00
"CC(=O)Oc1ccc(/C=C2/Sc3nc(Nc4ccc(N5CCN(C)CC5)cc4)ncc3NC2=O)cc1 [Compound 1c, (E)-4-((2-(4-(4-Methylpiperazin-1-yl)phenylamino)-6-oxo-5H-pyrimido[4,5-b][1,4]thiazin-7(6H)-ylidene)methyl)phenyl acetate]",5.00 to 6.00,5.00 to 6.00
"COc1ccc(/C=C2/Sc3nc(N(C(C)=O)c4ccc(N5CCN(C)CC5)cc4)ncc3NC2=O)cc1[N+](=O)[O-] [Compound 1d, (E)-N-(7-(4-methoxy-3-nitrobenzylidene)-6-oxo-6,7-dihydro-5H-pyrimido[4,5-b][1,4]thiazin-2-yl)-N-(4-(4-methylpiperazin-1-yl)phenyl)acetamide]",5.00 to 6.00,5.00 to 6.00
"O=C1Nc2cnc(N3CCN(c4ccccn4)CC3)nc2S/C1=C/c1ccc([N+](=O)[O-])cc1 [Compound 1e, (E)-7-(4-Nitrobenzylidene)-2-(4-(pyridin-2-yl)piperazin-1-yl)-5H-pyrimido[4,5-b][1,4]thiazin-6(7H)-one]",5.00 to 6.00,4.60 to 5.00
"CC(=O)N1CCN(c2ccc(Oc3ncc4c(n3)S/C(=C/c3ccc([N+](=O)[O-])cc3)C(=O)N4)cc2)CC1 [Compound 1f, (E)-2-(4-(4-Acetylpiperazin-1-yl)phenoxy)-7-(4-nitrobenzylidene)-5H-pyrimido[4,5-b][1,4]thiazin-6(7H)-one]",4.60 to 5.00,4.60 to 5.00
"CC(=O)N(c1ccc(N2CCN(C)CC2)cc1)c1ncc2c(n1)S/C(=C/c1cn(C(C)=O)c3ccccc13)C(=O)N2 [Compound 1g, (E)-N-(7-((1-Acetyl-1H-indol-3-yl)methylene)-6-oxo-6,7-dihydro-5H-pyrimido[4,5-b][1,4]thiazin-2-yl)-N-(4-(4-methylpiperazin-1-yl)phenyl)acetamide]",5.00 to 6.00,5.00 to 6.00
"CN1CCN(c2ccc(Nc3ncc4c(n3)S/C(=C/c3ccc(N)cc3)C(=O)N4)cc2)CC1 [Compound 1h, (E)-7-(4-Aminobenzlidene)-2-(4-(4-methylpiperazin-1-yl)phenylamino)-5H-pyrimido[4,5-b][1,4]thiazin-6(7H)-one]",5.00 to 6.00,> 6.00
"CC(=O)Oc1ccc(/C=C2/Sc3nc(N4CCN(c5ccccn5)CC4)ncc3NC2=O)cc1 [Compound 1i, (E)-4-((6-Oxo-2-(4-(pyridin-2-yl)piperazin-1-yl)-5H-pyrimido[4,5-b][1,4]thiazin-7(6H)-ylidene)methyl)phenyl acetate]",5.00 to 6.00,5.00 to 6.00
"O=C1Nc2cnc(N3CCN(c4ncccn4)CC3)nc2S/C1=C/c1ccc([N+](=O)[O-])cc1 [Compound 1j, (E)-7-(4-Nitrobenzylidene)-2-(4-(pyrimidin-2-yl)piperazin-1-yl)-5H-pyrimido[4,5-b][1,4]thiazin-6(7H)-one]",4.30 to 4.60,4.00 to 4.30
"CC1CCN(c2ccc(Nc3ncc4c(n3)S/C(=C/c3ccc([N+](=O)[O-])cc3)C(=O)N4)cc2)CC1 [Compound 1m, (E)-2-((4-(4-Methylpiperidin-1-yl)phenyl)amino)-7-(4-nitrobenzylidene)-5H-pyrimido[4,5-b][1,4]thiazin-6(7H)-one]",5.00 to 6.00,5.00 to 6.00
"CN1CCN(c2ccc(Nc3ncc4c(n3)SCC(=O)N4)cc2)CC1 [Compound 4a, 2-(4-(4-methylpiperazin-1-yl)phenylamino)-5H-pyrimido[4,5-b][1,4]thiazin-6(7H)-one]",4.60 to 5.00,5.00 to 6.00
